From publication PMC11284788, “NN1213 – A Potent, Long-Acting, and Selective Analog of Human Amylin” (Journal of Medicinal Chemistry, 2024)
Like-named read-outs stand apart in the source and are kept apart here. Numbered stars: 1 amine (or outer) side, 2 acyl side, 3 side chain; on linkers, the order of the positions; unused ones are H or OH. Bridge positions count the residues as written; N and C are the ends. Peptide text beside a SMILES is read from it. * marks the point of attachment. C20 diacid = O=C(O)CCCCCCCCCCCCCCCCCCC(=O)*; γGlu = O=C(O)[C@H](CCC(=O)[*:2])N[*:1]

Tests used:
hAMY3R = biological target: T1, hAMY3R (Homo sapiens, UniProt O60896+P30988); test: scintillation proximity binding assay, hAMY3R membranes; set-up: expressed in transfected cells; host or cells: BHK tk-ts 13, transient co-transfection; membranes for the SPA, whole cells for the species-specific assays; settings: for ratio hCTR/hAMY3R: ratio of binding IC50 values
T1 sequence (P30988 25-474): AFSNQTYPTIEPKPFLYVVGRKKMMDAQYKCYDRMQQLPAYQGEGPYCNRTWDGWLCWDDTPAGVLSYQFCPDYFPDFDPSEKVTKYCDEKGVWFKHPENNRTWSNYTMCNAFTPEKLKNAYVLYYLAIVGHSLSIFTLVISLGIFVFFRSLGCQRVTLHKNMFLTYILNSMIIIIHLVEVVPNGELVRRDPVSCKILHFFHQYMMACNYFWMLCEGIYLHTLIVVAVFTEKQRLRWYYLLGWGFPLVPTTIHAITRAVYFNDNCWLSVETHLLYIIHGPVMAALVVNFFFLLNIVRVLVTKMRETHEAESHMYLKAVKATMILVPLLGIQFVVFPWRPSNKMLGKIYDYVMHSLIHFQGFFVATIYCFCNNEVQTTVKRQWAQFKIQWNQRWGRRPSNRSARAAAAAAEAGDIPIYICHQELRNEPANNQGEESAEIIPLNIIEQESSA
T1 sequence (O60896 24-148 partner): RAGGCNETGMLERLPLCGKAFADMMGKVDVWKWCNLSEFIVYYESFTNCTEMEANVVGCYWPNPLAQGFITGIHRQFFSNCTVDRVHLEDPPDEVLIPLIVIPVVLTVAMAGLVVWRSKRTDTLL
Procedure: (§1) The apparent binding affinities were determined using a scintillation proximity assay with beads from PerkinElmer and cell membranes containing the AMY3R or CTRs. […] Membranes were harvested and membranes were prepared and kept at −80 °C until use. The assay was performed in a 384-well Optiplate (PerkinElmer). Membranes were mixed with scintillation proximity assay beads in a 1:1 ratio. […] Samples were analyzed on a TopCounter (Packard). The IC50 values were calculated using GraphPad Prism. See Supporting Information S7: SAR Screening Assay Methods (Binding Assays (Human and Rat)) for more information.
(§2) Binding Assays (Human and Rat). Brief descriptions of the methods used to determine binding affinities for SAR analysis are described below. Curves and IC50 values were plotted and calculated in GraphPad Prism using nonlinear regression (one site binding competition analysis), with pIC50 values […]
(§3) values were used to calculate the binding affinity ratios in order to express the selectivity of compounds for the AMY3R versus the CTR.
(§4) CTR Binding Assay. The binding assay was performed using scintillation proximity assay (SPA) beads (RPNQ0001) from PerkinElmer and cell membranes containing either the hCTR or rCTR. BHK […]
(§5) Membranes were prepared in the following way: the cells were rinsed with PBS and incubated with Versene for approximately 5 min before harvesting. The cells were flushed with PBS and the cell-suspension was centrifuged for 5 min at 1000 rpm. Cells were homogenized (Ultra Turrax) in a buffer […]
(§6) containing 20 mM Na-HEPES and 0.1 mM EDTA (pH 7.4, buffer 2). The resulting pellet was re-suspended in buffer 2 and protein concentration was measured (BCA protein assay, Pierce). The homogenate was kept cold during the whole procedure. The membranes were stored at –80 °C until […]
(§7) The binding assay was performed in a 384-well Optiplate (PerkinElmer) in a total volume of 40 μL.
(§8) Membranes were mixed with SPA beads in a 1:1 ratio. […]
(§9) mg/well. Test compounds were dissolved in DMSO and further diluted in assay buffer (50 mM HEPES, pH 7.4, 1 mM CaCl2, 5 mM MgCl2, 0.1% ovalbumin, and 0.02% Tween-20).
(§10) Calcitonin (NEX422 PerkinElmer) was dissolved in assay buffer and added to the Optiplate at a final […]
(§11) prior to centrifugation (1500 rpm, 10 min). Samples were analyzed on TopCounter (Packard).
AMY3R Binding Assay. The binding assay was performed using SPA beads (RPNQ0001) from PerkinElmer and cell membranes containing either the hAMY3R or rAMY3R. BHK tk-ts 13 cells were […]
as §5, with “and cultured as described above. Membranes” for “Membranes”, “buffer containing 20 mM Na-HEPES and 10 mM EDTA (pH 7.4), and” for “buffer”
The resulting pellet was re-suspended, homogenized, and
7.4, buffer 2). The resulting pellet was re-suspended in buffer 2 and protein concentration was measured (BCA protein assay, Pierce). The homogenate was kept cold during the whole procedure.
The membranes were stored at –80 °C until use.
Membranes were mixed with SPA beads in a 1:1 ratio. The final concentration of SPA beads was 0.05 mg/well. Test compounds were dissolved in DMSO and further diluted in assay buffer (50 mM […]
rAMY (NEX448 PerkinElmer) was dissolved in assay buffer and added to the Optiplate at a final

[1] = Solubility versus pH profile
rCTR = biological target: T2, rCTR (Rattus norvegicus, UniProt P32214); test: scintillation proximity binding assay, rCTR membranes
T2 construct: expressed in transfected cells; host or cells: BHK tk-ts 13, transient (FuGENE 6)
T2 sequence (P32214 25-479 isoform P32214-2 limits assumed): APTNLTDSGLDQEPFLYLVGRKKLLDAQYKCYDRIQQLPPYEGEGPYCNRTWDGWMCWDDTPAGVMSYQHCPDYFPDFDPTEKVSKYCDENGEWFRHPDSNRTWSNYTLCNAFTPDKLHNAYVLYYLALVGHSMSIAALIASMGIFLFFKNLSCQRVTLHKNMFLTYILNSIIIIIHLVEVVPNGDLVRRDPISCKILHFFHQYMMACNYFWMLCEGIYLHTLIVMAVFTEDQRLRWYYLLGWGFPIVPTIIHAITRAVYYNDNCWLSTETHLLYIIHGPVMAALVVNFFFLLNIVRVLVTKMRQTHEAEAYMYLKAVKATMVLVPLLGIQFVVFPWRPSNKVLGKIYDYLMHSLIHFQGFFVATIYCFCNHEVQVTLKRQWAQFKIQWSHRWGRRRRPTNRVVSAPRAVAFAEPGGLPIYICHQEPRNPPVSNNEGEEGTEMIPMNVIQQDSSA
Procedure: as §1, §2, §3, §4, §5, §6, §7, §8, §9, §10, §11

hCTR = biological target: T3, hCTR (Homo sapiens, UniProt P30988); test: scintillation proximity binding assay, hCTR membranes; set-up: expressed in transfected cells; host or cells: BHK tk-ts 13, transient (FuGENE 6); membranes for the SPA, whole cells for the species-specific assays
T3 sequence (P30988 25-474): T1 sequence (P30988 25-474)
Procedure: as §1, §2, §3, §4, §5, §6, §7, §8, §9, §10, §11

[2] = SPA binding assay, Tables S13 and S15
[3] = bis-tris-propane buffer, pH 6, aqueous buffer
[4] = bis-tris-propane buffer, pH 6.5, aqueous buffer
[5] = bis-tris-propane buffer, pH 7, aqueous buffer
[6] = bis-tris-propane buffer, pH 7.5, aqueous buffer
[7] = bis-tris-propane buffer, pH 8, aqueous buffer
[8] = lactate buffer, pH 4, aqueous buffer
[9] = lactate buffer, pH 5, aqueous buffer

| SMILES | hAMY3R pIC50 (hAMY3R; [2]) | ratio hCTR/hAMY3R (hAMY3R) | solubility kinetic [1, 3] | solubility kinetic [1, 4] | solubility kinetic [1, 5] | solubility kinetic [1, 6] | solubility kinetic [1, 7] | solubility kinetic [1, 8] | solubility kinetic [1, 9] | rCTR pIC50 (rCTR; [2]) | hCTR pIC50 (hCTR; [2]) | IC50 (hAMY3R; SPA binding assay, Tables S13 and S15, read-out: hAMY3R pIC50 (converted)) | IC50 (hAMY3R; SPA, BHK cell membranes, 125I-rat amylin, 120 min 25 °C, read-out: hAMY3R IC50) | IC50 (rCTR; SPA binding assay, Tables S13 and S15, read-out: rCTR pIC50 (converted)) | IC50 (rCTR; SPA, BHK cell membranes, 125I-Calcitonin 75 pM, 120 min 25 °C, read-out: rCTR IC50) | IC50 (hCTR; SPA binding assay, Tables S13 and S15, read-out: hCTR pIC50 (converted)) | IC50 (hCTR; SPA, BHK cell membranes, 125I-Calcitonin 75 pM, 120 min 25 °C, read-out: hCTR IC50) |
| --- | --- | --- | --- | --- | --- | --- | --- | --- | --- | --- | --- | --- | --- | --- | --- | --- | --- |
| CC[C@H](C)[C@H](NC(=O)[C@H](C)NC(=O)CNC(=O)[C@H](Cc1ccccc1)NC(=O)[C@H](CC(N)=O)NC(=O)[C@@H]1CCCN1C(=O)[C@H](CO)NC(=O)[C@H](CO)NC(=O)[C@H](Cc1c[nH]cn1)NC(=O)[C@H](CCCNC(=N)N)NC(=O)[C@H](CC(C)C)NC(=O)[C@H](Cc1ccccc1)NC(=O)[C@H](CC(N)=O)NC(=O)[C@H](C)NC(=O)[C@H](CC(C)C)NC(=O)[C@H](CCCNC(=N)N)NC(=O)[C@H](CCC(N)=O)NC(=O)[C@@H](NC(=O)[C@H](C)NC(=O)[C@@H]1CSSC[C@H](NC(=O)[C@H](CCCCN)NC(=O)COCCOCCNC(=O)COCCOCCNC(=O)CC[C@H](NC(=O)CCCCCCCCCCCCCCCCCCC(=O)O)C(=O)O)C(=O)N[C@@H](CC(N)=O)C(=O)N[C@@H]([C@@H](C)O)C(=O)N[C@@H](C)C(=O)N[C@@H]([C@@H](C)O)C(=O)N1)[C@@H](C)O)C(=O)N1CCC[C@H]1C(=O)N[C@@H](CO)C(=O)N[C@@H](CO)C(=O)N[C@H](C(=O)N[C@@H](CC(N)=O)C(=O)N[C@H](C(=O)NCC(=O)N[C@@H](CO)C(=O)N[C@@H](CC(N)=O)C(=O)N[C@H](C(=O)N[C@@H](Cc1ccc(O)cc1)C(N)=O)[C@@H](C)O)C(C)C)[C@@H](C)O [Peptide 10] | 8.94 | 90 | ≥ 200 µM | ≥ 200 µM | ≥ 200 µM | ≥ 200 µM | ≥ 200 µM | ≥ 200 µM | ≥ 200 µM | 6.46 | 6.99 |  |  |  |  |  |  |
| CC[C@H](C)[C@H](NC(=O)[C@H](C)NC(=O)CNC(=O)[C@H](Cc1ccccc1)NC(=O)[C@H](CC(N)=O)NC(=O)[C@@H]1CCCN1C(=O)[C@H](CO)NC(=O)[C@H](CO)NC(=O)[C@H](Cc1c[nH]cn1)NC(=O)[C@H](CCCNC(=N)N)NC(=O)[C@H](CC(C)C)NC(=O)[C@H](Cc1ccccc1)NC(=O)[C@H](CC(N)=O)NC(=O)[C@H](C)NC(=O)[C@H](CC(C)C)NC(=O)[C@H](CCCNC(=N)N)NC(=O)[C@H](CCC(N)=O)NC(=O)[C@@H](NC(=O)[C@H](C)NC(=O)[C@@H]1CSSC[C@H](NC(=O)[C@H](CCCCN)NC(=O)CC[C@H](NC(=O)CCCCCCCCCCCCCCCCCCC(=O)O)C(=O)O)C(=O)N[C@@H](CC(N)=O)C(=O)N[C@@H]([C@@H](C)O)C(=O)N[C@@H](C)C(=O)N[C@@H]([C@@H](C)O)C(=O)N1)[C@@H](C)O)C(=O)N1CCC[C@H]1C(=O)N[C@@H](CO)C(=O)N[C@@H](CO)C(=O)N[C@H](C(=O)N1CCC[C@H]1C(=O)N[C@H](C(=O)NCC(=O)N[C@@H](CO)C(=O)N[C@@H](CCC(=O)O)C(=O)N[C@H](C(=O)N[C@@H](Cc1ccc(O)cc1)C(N)=O)[C@@H](C)O)C(C)C)[C@@H](C)O [Peptide 11] ({C20 diacid-γGlu}-KCNTATCATQRLANFLRHSSPNFGAIPSSTPVGSETY-NH2; disulfide 2-7) |  | 20 | ≥ 200 µM | ≥ 200 µM | ≥ 200 µM | ≥ 200 µM | ≥ 200 µM | ≥ 200 µM | ≥ 200 µM |  |  | 0.589 nM | 0.589 nM | 51.3 nM | 51.4 nM | 12 nM | 11.9 nM |
| CC[C@H](C)[C@H](NC(=O)[C@H](C)NC(=O)CNC(=O)[C@H](Cc1ccccc1)NC(=O)[C@H](CC(N)=O)NC(=O)[C@@H]1CCCN1C(=O)[C@H](CO)NC(=O)[C@H](CO)NC(=O)[C@H](Cc1c[nH]cn1)NC(=O)[C@H](CCCNC(=N)N)NC(=O)[C@H](CC(C)C)NC(=O)[C@H](Cc1ccccc1)NC(=O)[C@H](CCC(=O)O)NC(=O)[C@H](C)NC(=O)[C@H](CC(C)C)NC(=O)[C@H](CCCNC(=N)N)NC(=O)[C@H](CCC(N)=O)NC(=O)[C@@H](NC(=O)[C@H](C)NC(=O)[C@@H]1CSSC[C@H](NC(=O)[C@H](CCCCN)NC(=O)CC[C@H](NC(=O)CCCCCCCCCCCCCCCCCCC(=O)O)C(=O)O)C(=O)N[C@@H](CC(N)=O)C(=O)N[C@@H]([C@@H](C)O)C(=O)N[C@@H](C)C(=O)N[C@@H]([C@@H](C)O)C(=O)N1)[C@@H](C)O)C(=O)N1CCC[C@H]1C(=O)N[C@@H](CO)C(=O)N[C@@H](CO)C(=O)N[C@H](C(=O)N[C@@H](CC(N)=O)C(=O)N[C@H](C(=O)NCC(=O)N1CCC[C@H]1C(=O)N[C@@H](CC(N)=O)C(=O)N[C@H](C(=O)N[C@@H](Cc1ccc(O)cc1)C(N)=O)[C@@H](C)O)C(C)C)[C@@H](C)O [Peptide 12] ({C20 diacid-γGlu}-KCNTATCATQRLAEFLRHSSPNFGAIPSSTNVGPNTY-NH2; disulfide 2-7) |  | 11 | ≥ 200 µM | ≥ 200 µM | ≥ 200 µM | ≥ 200 µM | ≥ 200 µM | ≥ 200 µM | ≥ 200 µM | 8.22 | 8.96 |  |  |  |  |  |  |
